Data as given in US20070265208A1, “Association of calpain inhibitors and reactive oxygen species trapping agents” (priority 2000, published 2007).

System: human neuroblastomas SHSY5Y
Assay: Protection from necrosis induced by maitotoxin, SHSY5Y (wst-1 viability)
Format: cell-based
Settings: for Protection from necrosis induced by MTX: SHSY5Y, n=2, 0.1 nM maitotoxin; for Protection from necrosis induced by MTX on SHSY5Y: n = 8, single product at 100 μM
Method: Human neuroblastomas SHSY5Y and rat glial cells C6 are seeded at 25 000 cells per well in 96-well plates in DMEM 10% FBS for 24 hours. The L6 rat myoblasts are seeded at 1000 cells per well in DMEM 10% FBS on 96-well microplates coated beforehand with gelatin 0.5% PBS. After culture for 3 days the medium is removed and replaced with a differentiation medium (DMEM+10 μg/ml of insulin+100 μg/ml of transferrin). 50 μl of product A plus 50 μl of solvent or 50 μl of product B are placed in the wells. After incubation for 1 hour at 37° C. under an atmosphere of 5% CO2, 10 μl of maitotoxin is added in order to obtain a final concentration of 0.1 nM to 1 nM (according to the cell type). After incubation for 3 hours at 37° C. under an atmosphere of 5% CO2, the cell viability is determined by adding 10 μl of tetrazolium salts (wst-1, Roche, ref: 1644807). The tetrazolium salts are cleaved into formazan molecules by mitochondrial dehydrogenases. The quantity of formazan formed is directly correlated to the number of metabolically active cells in the culture. Measurement of the absorbance of the formazan is carried out using a multiwell photometer at a wavelength of 420 nm against a reference wavelength of 620 nm.
The theoretical effect was obtained by multiplying the percentage of dead cells in the presence of product A by the percentage of dead cells in the presence of product B (Table 3). The percentage protection against cell death induced by MTX being the percentage of cells kept alive in the presence of the product or products.
In a first series of experiments, the concentration of product A in Example 1 is fixed (100 μM), product B is added at concentrations varying from zero to 100 μM (Table 4A). In a second series of experiments, product B of Example 1 is fixed at 100 μM, product A is added at concentrations varying from zero to 100 μM (Table 4B).

In the case of `CC(C)C[C@@H](C=O)NC(=O)[C@H](CC(C)C)NC(=O)OCc1ccccc1` [EXAMPLE 1 B, benzyl (1S)-1-({[(1S)-1-formyl-3-methylbutyl]amino}carbonyl)-3-methylbutylcarbamate], the “Protection from necrosis induced by MTX” value (single compound at 12.5 μM) is reported as 6.89 ± 1.51%, the “Protection from necrosis induced by MTX” value (single compound at 25 μM) is reported as 6.94 ± 0.2% and the “Protection from necrosis induced by MTX” value (single compound at 50 μM) is reported as 9.01 ± 0.83%. The “Protection from necrosis induced by MTX” value (single compound at 100 μM) was 17.52 ± 2.69%, the “Protection from necrosis induced by MTX on SHSY5Y” value was 12.87 ± 3.72% and the “Protection from necrosis induced by MTX on SHSY5Y” value (listed as Z-Leu-Leu-H) was “not active”.
